Results reported in patent US5652359A, “Oligonucleotides containing n-methyl thiolated bases having antiviral activity” (Epoch Pharmaceuticals, Inc., priority 1993, dated 1997).
Values after ≈ are worked out from the molar mass of the structure shown.

How the values were obtained:
[1] = target: HSV-1 DNA polymerase (Human herpesvirus 1, UniProt P04293); experiment: HSV DNA polymerase assay, HSV-1; assay type: biochemical; settings: activated calf thymus DNA, 30 minutes at 37° C.
Description: (§1) HSV DNA polymerases were assayed as described by Ostrander M., and Cheng Y. C., (1980) BIOCHEM. BIOPHYS. ACTA 609:232-245. The standard assay mixture (total volume 50 uL) contained 25 mM Tris-HCl pH 8, 10 mM MgCl2, 0.5 mM dithiothreitol, 0.5 mg/mL BSA, 200 mM KCl, 100 ug/mL activated calf thymus DNA, 0.1 mM each dATP, dCTP, dGTP, 5 uM [^3 H]dTTP (2 Ci/mmol), 4-5×10-^4 units of enzyme, and different drug concentrations. After incubation at 37° C. for 30 minutes, the reaction mixture was spotted on 2.4 cm Whatman GF/A glass fiber filter discs and trichloroacetic acid-insoluble radioactivity was measured.
(§2) One unit of DNA polymerase activity is defined as the amount of enzyme which catalyzes the incorporation of 1 nanomol of dTMP into activated DNA/30 min. […] IC50 is that concentration (expressed in micromoles) of the novel oligonucleotide which results in 50% inhibition of the enzyme.

[2] = target: T1, HSV-2 DNA polymerase (Human herpesvirus 2, UniProt P89453); experiment: HSV DNA polymerase assay, HSV-2; assay type: biochemical; settings: activated calf thymus DNA, 30 minutes at 37° C.
T1 sequence (P89453 1-1240): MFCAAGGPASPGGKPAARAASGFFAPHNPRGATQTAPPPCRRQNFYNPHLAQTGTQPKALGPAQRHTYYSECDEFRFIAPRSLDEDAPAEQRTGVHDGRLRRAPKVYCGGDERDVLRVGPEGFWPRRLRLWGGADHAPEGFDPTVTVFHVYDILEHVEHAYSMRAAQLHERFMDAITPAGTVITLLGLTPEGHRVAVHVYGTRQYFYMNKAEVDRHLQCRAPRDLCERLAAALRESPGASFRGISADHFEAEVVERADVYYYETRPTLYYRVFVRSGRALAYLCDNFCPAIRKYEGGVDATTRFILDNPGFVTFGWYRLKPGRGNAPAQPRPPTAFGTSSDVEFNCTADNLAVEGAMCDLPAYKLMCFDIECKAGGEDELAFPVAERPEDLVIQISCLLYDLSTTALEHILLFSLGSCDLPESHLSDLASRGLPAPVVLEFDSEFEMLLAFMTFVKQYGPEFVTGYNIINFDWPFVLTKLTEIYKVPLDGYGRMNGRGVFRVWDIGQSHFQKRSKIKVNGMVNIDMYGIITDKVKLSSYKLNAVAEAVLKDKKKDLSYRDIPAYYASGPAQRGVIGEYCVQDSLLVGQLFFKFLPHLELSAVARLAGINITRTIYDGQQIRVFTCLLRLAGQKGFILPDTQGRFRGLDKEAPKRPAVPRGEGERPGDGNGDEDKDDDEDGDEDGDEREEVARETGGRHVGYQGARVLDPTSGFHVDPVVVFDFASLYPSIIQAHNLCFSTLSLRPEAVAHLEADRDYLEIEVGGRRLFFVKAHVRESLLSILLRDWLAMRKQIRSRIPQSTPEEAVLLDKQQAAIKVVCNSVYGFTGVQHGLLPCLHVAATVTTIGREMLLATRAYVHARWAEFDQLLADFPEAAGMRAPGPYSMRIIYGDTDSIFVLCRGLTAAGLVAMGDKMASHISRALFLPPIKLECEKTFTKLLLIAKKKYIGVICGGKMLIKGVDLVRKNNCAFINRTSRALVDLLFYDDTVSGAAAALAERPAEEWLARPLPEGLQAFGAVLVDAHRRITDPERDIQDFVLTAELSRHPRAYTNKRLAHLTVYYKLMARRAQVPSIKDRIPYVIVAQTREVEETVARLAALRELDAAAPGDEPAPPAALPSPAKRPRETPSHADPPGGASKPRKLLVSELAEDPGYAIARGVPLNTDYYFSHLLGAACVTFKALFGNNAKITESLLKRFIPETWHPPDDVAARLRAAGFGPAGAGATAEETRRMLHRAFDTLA
Description: as §1, §2

[3] = target: T2, HIV-1 reverse transcriptase (RT) (Human immunodeficiency virus type 1 group M subtype B, UniProt P04585); experiment: HIV reverse transcriptase assay, HIV-1; assay type: biochemical; settings: RNA-dependent enzyme assay, 30 minutes at 37° C.
T2 construct: as a 66 and 51 kDa protein dimer; made in house; host or cells: bacteria
Description: HIV-1 reverse transcriptase (RT) was expressed from a recombinant plasmid in bacteria as a 66 and 51 kDa protein dimer as described by D'Aquila R. T. and Summers W. C., (1989) J. ACQUIRED IMMUNE DEFIC SYNDR 2:579-587.
The standard reaction mixture for the RNA-dependent enzyme assays contained in a 50 uL volume: 50 mM Tris-HCl, pH 7.8, 50 mM KCl, 6 mM MgCl2, 0.1 mg/mL heat-inactivated bovine serum albumin, 1 mM dithiothreitol, 0.5 0D260 units/mL template-primer Poly(rC) oligo(dG)12-18, 10 uM [^3 H]dGTP and 3.3×10^-3 units of HIV-1 RT. A unit was defined as the amount of enzyme necessary to incorporate 1 nanomol of [^3 H]dTMP into the Poly(rA)-oligo(dT)10 template in 1.0 min at 37° C. The samples were incubated for 30 minutes at 37° C., and all reactions were carried out in the linear range. Aliquot of 40 uL were spotted on glass fiber filters (Whatman GF/A) and processed for determination of trichloroacetic acid-insoluble radioactivity as described by Cheng Y. C., Dutschman G. E., Bastow K. F., Sarngadharan M. G., and Ting R. Y. C. (1987) J. BIOL CHEM 262:2187-2189. Poly(rA)-oligo(dT)10was used as template-primer.
Table 4 indicates the results obtained in this assay with examplary oligonucleotides of the invention. The oligonucleotides are identified by their respective "compound number".

[4] = target: T3, HIV-2 reverse transcriptase (Human immunodeficiency virus type 2 subtype A, UniProt P04584); experiment: HIV reverse transcriptase assay, HIV-2; assay type: biochemical; settings: RNA-dependent enzyme assay, 30 minutes at 37° C.
T3 construct: HIV REVERSE TRANSCRIPTASE ASSAY
T3 sequence (P04584 613-1171 limits assumed): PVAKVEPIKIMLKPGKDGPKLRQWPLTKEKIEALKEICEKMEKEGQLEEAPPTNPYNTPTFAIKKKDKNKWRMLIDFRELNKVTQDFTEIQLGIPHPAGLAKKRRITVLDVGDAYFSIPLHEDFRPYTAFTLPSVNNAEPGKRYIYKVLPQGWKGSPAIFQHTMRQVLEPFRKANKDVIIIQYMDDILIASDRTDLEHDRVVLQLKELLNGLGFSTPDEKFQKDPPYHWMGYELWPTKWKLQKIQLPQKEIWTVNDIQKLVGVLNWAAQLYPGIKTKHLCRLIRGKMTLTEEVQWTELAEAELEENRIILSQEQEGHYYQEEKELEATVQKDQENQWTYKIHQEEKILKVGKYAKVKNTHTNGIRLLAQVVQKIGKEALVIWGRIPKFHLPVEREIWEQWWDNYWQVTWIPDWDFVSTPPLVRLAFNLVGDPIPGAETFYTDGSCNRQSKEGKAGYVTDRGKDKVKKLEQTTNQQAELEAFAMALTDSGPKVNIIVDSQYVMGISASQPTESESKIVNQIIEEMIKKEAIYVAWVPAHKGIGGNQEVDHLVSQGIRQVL

[5] = Visual cell toxicity in MRC-5 cells (HCMV assay); assay type: cell-based; settings: human, previous data, read-out: CD50 (cytotoxicity)
Description: (§3) Cells MRC-5, an immortalized line of diploid, human ([…]) embryonic lung cells were used. These can be obtained from the American Type Culture Collection, Rockville, Md.
All compounds were prepared and diluted to the concentrations indicated in test medium. Growth medium was decanted from established monolayers of MRC-5 cells in 24-well tissue culture plates (Corning Glass Works, Corning, N.Y.). One ml of virus, diluted in test medium, was placed in each well except those to be used for cell controls. One ml of sterile test medium was placed in each of these cell control wells. Virus was allowed to adsorb to the cells while plates were centrifuged at 2200 rpm for 30 minutes at room temperature. Medium was aspirated from each well of the plates and 0.8 ml of the proper compound dilution was placed in each of the test wells (2 wells/dilution). Test medium without compound was added (0.8 ml/well) to each cell control and virus control well. Plates were placed in an incubator at 37° C. in a moist atmosphere of 5% CO2, 95% air until plaques could be distinguished in the virus control wells. […] Plaques were counted by use of a dissecting microscope.
ED50 and CD50 values were calculated by regression analysis of the viral plaque data and the visual cell toxicity data, respectively. […]

[6] = system: Human cytomegalovirus (HCMV), strain AD-169; experiment: In vitro human cytomegalovirus inhibition (plaque) assay in MRC-5 cells; assay type: cell-based
Description: as §3
Virus Human cytomegalovirus (HCMV), strain AD-169 were used. These can be obtained from the American Type Culture Collection, Rockville, Md.
Medium Growth medium for the MRC-5 cells consisted of Basal Medium Eagle (BME) (GIBCO BRL, Research Products Division, Life Technologies, Inc., Grand Island, N.Y. was the source of all media) with 10% fetal bovine serum (FBS) (Hyclone Laboratories, Logan Utah), 0.035% NaHCO3. Antibiotics were not used in the growth media. Test medium for dilution of HCMV and for preparation and dilution of compounds for the experiments was DMEM, 2% FBS, 0.1% NaHCO3, 50 μg gentamicin/ml.
All compounds were prepared and diluted to the concentrations indicated in test medium. Growth medium was decanted from established monolayers of MRC-5 cells in 24-well tissue culture plates (Corning Glass Works, Corning, N.Y.). One ml of virus, diluted in test medium, was placed in each well except those to be used for cell controls. One ml of sterile test medium was placed in each of these cell control wells. Virus was allowed to adsorb to the cells while plates were centrifuged at 2200 rpm for 30 minutes at room temperature. Medium was aspirated from each well of the plates and 0.8 ml of the proper compound dilution was placed in each of the test wells (2 wells/dilution). Test medium without compound was added (0.8 ml/well) to each cell control and virus control well. Plates were placed in an incubator at 37° C. in a moist atmosphere of 5% CO2, 95% air until plaques could be distinguished in the virus control wells. […] After 15 minutes, the stain was aspirated, the plates were rinsed in running tap water until the water was clear, and the plates were inverted and dried at room temperature. Plaques were counted by use of a dissecting microscope.
ED50 and CD50 values were calculated by regression analysis of the viral plaque data and the visual cell toxicity data, respectively. […] CD50 is the concentration halfway between those at which 100% and 0% cytotoxicity are seen.

HSV-1 DNA polymerase, sequence (P04293 whole entry): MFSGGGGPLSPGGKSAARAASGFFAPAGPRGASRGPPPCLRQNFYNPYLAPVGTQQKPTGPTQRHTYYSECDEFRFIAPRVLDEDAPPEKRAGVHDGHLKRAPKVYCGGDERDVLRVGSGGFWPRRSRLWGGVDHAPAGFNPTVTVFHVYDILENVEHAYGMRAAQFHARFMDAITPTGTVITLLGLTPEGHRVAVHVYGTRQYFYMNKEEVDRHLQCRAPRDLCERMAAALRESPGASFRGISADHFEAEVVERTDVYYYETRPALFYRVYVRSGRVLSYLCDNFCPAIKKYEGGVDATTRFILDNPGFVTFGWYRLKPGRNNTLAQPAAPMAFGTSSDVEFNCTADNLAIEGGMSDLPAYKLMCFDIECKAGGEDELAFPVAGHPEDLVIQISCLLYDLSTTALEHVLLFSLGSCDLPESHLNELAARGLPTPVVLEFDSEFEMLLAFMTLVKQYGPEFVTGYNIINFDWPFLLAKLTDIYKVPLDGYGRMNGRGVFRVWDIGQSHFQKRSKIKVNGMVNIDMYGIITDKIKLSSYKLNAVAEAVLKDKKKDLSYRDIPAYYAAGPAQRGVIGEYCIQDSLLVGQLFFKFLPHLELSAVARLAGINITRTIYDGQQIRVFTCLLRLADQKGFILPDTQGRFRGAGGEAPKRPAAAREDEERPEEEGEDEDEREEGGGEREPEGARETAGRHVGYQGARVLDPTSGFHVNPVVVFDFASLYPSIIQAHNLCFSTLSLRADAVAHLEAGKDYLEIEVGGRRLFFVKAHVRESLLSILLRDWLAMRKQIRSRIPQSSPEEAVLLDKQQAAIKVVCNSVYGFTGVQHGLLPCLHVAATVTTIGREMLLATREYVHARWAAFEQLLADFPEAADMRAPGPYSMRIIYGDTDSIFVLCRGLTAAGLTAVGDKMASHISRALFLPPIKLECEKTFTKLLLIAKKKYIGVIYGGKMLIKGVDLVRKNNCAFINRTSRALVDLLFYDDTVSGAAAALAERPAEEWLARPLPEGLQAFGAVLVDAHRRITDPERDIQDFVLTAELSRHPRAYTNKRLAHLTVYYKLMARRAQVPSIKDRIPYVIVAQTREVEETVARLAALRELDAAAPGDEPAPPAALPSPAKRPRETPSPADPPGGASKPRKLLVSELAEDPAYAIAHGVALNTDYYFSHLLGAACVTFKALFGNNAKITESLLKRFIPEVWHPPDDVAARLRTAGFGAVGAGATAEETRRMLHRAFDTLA

Compound	IC50 [1] [nM]	IC50 [2] [nM]	IC50 [3] [nM]	IC50 [4] [nM]	CC50 [5] [µg/mL]	# of plaques ([6]; 0.32 μg/ml)	# of plaques ([6]; 1.0 μg/ml)	# of plaques ([6]; 3.2 μg/ml)	# of plaques ([6]; 10 μg/ml)	Therapeutic Index TI = CD50/ED50 ([6]; HCMV, MRC-5 cells)	inhibition at 0.32 µg/mL ([6]; Human betaherpesvirus 5, AD169, MRC5, 0.32 μg/ml, read-out: % reduction (plaques)) [%]	inhibition at 1 µg/mL ([6]; Human betaherpesvirus 5, AD169, MRC5, 1.0 μg/ml, read-out: % reduction (plaques)) [%]	inhibition at 3.2 µg/mL ([6]; Human betaherpesvirus 5, AD169, MRC5, 3.2 μg/ml, read-out: % reduction (plaques)) [%]	inhibition at 10 µg/mL ([6]; Human betaherpesvirus 5, AD169, MRC5, 10 μg/ml, read-out: % reduction (plaques)) [%]	EC50 ([6]; Human betaherpesvirus 5, AD169, MRC5, regression analysis of viral plaque data, read-out: ED50 (plaques reduced to 50% of virus controls)) [µg/mL]
5[dCyd3P(S)(O)]27dCyd [SdC28]	30	90	15 ± 4	71 ± 11	–	–	–	–	–	–	–	–	–	–	–
Nc1nc(O)c2ncn(COC(CO)CO)c2n1 [DHPG, Ganciclovir]	–	–	–	–	> 1000	39.5	33.5	10.5	0.0	> 588	14	27	77	100	1.7 (≈ 6.66 µM)
